Experimental data from patent US9216999B2, “Substituted pyrrolo[2,3-h][1,6]naphthyridines and compositions thereof as JAK inhibitors” (priority 2011, dated 2015).
Like-named read-outs stand apart in the source and are kept apart here.

How the values were obtained:
Type in all cases: biochemical
JAK1 = JAK1 (Homo sapiens (Human), UniProt P23458); test: Enzyme assay (Assay Example^a 1), JAK1; details: ATP 100 μM
JAK2 = JAK2 (Homo sapiens (Human), UniProt O60674); test: Enzyme assay (Assay Example^a 1), JAK2
JAK3 = JAK3 (Homo sapiens (Human), UniProt P52333); test: Enzyme assay (Assay Example^a 1), JAK3
Tyk2 = Tyk2 (Homo sapiens (Human), UniProt P29597); test: Enzyme assay (Assay Example^a 1), Tyk2; details: ATP 100 μM
Sequence of Tyk2 (P29597 whole entry): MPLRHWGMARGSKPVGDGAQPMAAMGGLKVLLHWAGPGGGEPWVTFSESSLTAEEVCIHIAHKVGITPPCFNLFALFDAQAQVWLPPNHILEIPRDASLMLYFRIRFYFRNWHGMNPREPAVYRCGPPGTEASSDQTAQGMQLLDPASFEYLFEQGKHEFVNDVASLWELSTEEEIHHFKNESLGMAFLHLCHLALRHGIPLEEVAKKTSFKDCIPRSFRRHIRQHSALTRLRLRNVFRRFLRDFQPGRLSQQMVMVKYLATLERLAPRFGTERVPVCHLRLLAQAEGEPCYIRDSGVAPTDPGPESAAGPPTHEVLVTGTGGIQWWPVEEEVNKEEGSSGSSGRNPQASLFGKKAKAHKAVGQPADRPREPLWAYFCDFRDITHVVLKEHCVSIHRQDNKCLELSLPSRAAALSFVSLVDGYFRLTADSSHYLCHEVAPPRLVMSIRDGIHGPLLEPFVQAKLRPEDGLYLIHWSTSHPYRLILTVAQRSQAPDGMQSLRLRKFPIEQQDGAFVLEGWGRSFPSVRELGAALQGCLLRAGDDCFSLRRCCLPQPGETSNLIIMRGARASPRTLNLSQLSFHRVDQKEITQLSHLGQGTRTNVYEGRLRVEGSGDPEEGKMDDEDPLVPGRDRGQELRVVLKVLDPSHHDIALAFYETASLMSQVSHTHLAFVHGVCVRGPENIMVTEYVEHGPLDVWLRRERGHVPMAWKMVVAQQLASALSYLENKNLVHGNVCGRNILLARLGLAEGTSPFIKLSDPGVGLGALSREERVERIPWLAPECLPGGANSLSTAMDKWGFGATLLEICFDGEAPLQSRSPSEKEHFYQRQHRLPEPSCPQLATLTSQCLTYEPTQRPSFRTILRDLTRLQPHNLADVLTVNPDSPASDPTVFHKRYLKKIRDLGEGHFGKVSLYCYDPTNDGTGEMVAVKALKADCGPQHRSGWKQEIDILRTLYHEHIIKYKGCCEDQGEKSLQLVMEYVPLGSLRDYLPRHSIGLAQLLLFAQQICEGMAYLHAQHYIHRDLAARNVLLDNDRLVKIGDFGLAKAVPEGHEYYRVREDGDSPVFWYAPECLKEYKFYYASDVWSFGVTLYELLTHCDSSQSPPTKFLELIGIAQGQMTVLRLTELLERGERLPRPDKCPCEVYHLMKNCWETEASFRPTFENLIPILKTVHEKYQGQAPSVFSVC

Sequence of JAK3 (P52333 whole entry): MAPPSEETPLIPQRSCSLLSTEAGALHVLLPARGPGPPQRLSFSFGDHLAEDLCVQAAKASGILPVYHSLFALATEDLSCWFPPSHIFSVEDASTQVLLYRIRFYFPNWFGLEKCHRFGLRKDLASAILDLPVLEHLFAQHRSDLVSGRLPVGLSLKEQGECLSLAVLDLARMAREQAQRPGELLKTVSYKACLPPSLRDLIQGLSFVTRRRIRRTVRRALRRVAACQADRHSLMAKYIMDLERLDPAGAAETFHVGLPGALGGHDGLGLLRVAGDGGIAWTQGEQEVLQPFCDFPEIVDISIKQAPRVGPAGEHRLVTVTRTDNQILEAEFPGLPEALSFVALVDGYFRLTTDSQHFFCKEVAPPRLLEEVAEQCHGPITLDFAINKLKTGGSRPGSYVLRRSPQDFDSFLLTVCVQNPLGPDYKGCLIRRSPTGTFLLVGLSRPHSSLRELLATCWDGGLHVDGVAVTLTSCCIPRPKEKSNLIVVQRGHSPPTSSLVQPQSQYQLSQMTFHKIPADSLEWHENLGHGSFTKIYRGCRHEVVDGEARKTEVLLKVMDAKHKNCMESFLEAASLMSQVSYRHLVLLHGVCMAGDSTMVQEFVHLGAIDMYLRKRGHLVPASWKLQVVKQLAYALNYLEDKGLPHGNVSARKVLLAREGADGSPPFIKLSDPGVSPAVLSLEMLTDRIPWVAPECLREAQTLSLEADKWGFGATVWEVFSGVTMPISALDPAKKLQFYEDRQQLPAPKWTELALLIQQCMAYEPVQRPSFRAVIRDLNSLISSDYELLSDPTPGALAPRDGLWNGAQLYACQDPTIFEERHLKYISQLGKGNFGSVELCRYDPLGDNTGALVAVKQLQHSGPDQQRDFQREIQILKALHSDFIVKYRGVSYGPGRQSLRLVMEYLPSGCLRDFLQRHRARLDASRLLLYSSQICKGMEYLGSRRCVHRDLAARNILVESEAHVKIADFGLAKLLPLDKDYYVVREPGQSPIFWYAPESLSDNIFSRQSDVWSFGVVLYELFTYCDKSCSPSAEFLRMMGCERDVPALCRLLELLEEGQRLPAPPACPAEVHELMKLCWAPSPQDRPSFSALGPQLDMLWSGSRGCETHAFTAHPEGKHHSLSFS

| IC50 (JAK3; ATP 100 μM) [µM] | Compound | IC50 (JAK1) [µM] | IC50 (JAK2; ATP 100 μM) [µM] | IC50 (Tyk2) [µM] | IC50 (JAK2) [µM] | IC50 (JAK3) [µM] | IC50 (JAK1; Table^a 154) [µM] | IC50 (JAK2; ATP 100 μM, Table^a 154) [µM] | IC50 (JAK3; ATP 100 μM, Table^a 154) [µM] | IC50 (Tyk2; Table^a 154) [µM] |
| --- | --- | --- | --- | --- | --- | --- | --- | --- | --- | --- |
| 0.035 | O=C(CC(F)(F)F)NC[C@H]1CC[C@H](c2nnn3cnc4[nH]ccc4c23)CC1 [compound 373, N-{[trans-4-(7H-Pyrrolo[3,2-e][1,2,3]triazolo[1,5-c]pyrimidin-1-yl)cyclohexyl]methyl}-3,3,3-trifluoropropanamide] | 0.0015 | 0.011 | 0.53 | – | – | – | – | – | – |
| – | FC(F)(Br)CN[C@H]1CC[C@H](c2nnn3cnc4[nH]ccc4c23)CC1 [382b, trans-N-(2-bromo-2,2-difluoroethyl)-4-(7H-pyrrolo[3,2-e][1,2,3]triazolo[1,5-c]pyrimidin-1-yl)cyclohexanamine] | 0.00031 | – | 0.013 | 0.0028 | 0.07 | – | – | – | – |
| 0.39 | NC[C@H]1CC[C@H](c2nnn3cnc4[nH]ccc4c23)CC1 [compound 371, [trans-4-(7H-Pyrrolo[3,2-e][1,2,3]triazolo[1,5-c]pyrimidin-1-yl)cyclohexyl]methanamine] | 0.0033 | 0.035 | 0.18 | – | – | – | – | – | – |
| – | CC(NC[C@H]1CC[C@H](c2nnn3cnc4[nH]ccc4c23)CC1)c1ccc(F)c(F)c1 (mixture of isomers) [compound 109] | – | – | – | – | – | 0.0016 | 0.011 | 0.16 | 0.072 |
| – | O=S(=O)(c1ccc(NC[C@H]2CC[C@H](c3nnn4cnc5[nH]ccc5c34)CC2)cc1)C(F)(F)F [compound 173, N-{[trans-4-(7H-pyrrolo[3,2-e][1,2,3]triazolo[1,5-c]pyrimidin-1-yl)cyclohexyl]methyl}-4-[(trifluoromethyl)sulfonyl]aniline] | – | – | – | – | – | 0.034 | 0.26 | > 1 | 0.46 |
| 0.44 | OC1CN(C[C@H]2CC[C@@H](c3nnn4cnc5[nH]ccc5c34)CC2)C1 [compound 403, 1-{[cis-4-(7H-Pyrrolo[3,2-e][1,2,3]triazolo[1,5-c]pyrimidin-1-yl)cyclohexyl]methyl}azetidin-3-ol] | 0.04 | 0.3 | 0.81 | – | – | – | – | – | – |
| – | Fc1ccc(CN[C@H]2CC[C@@H](c3nnn4cnc5[nH]ccc5c34)CC2)cc1 [195a, cis-N-(4-fluorobenzyl)-4-(7H-pyrrolo[3,2-e][1,2,3]triazolo[1,5-c]pyrimidin-1-yl)cyclohexanamine] | – | – | – | – | – | 0.03 | 0.55 | > 1 | 0.31 |
| – | FC(F)(F)c1ccc(CN[C@H]2CC[C@@H](c3nnn4cnc5[nH]ccc5c34)CC2)cc1 [138a] | – | – | – | – | – | 0.023 | 0.74 | > 1 | 0.25 |
| – | CC1CCCCC1c1nnn2cnc3[nH]ccc3c12 (stereo not shown) [compound 7] | 0.0042 | 0.012 | 0.056 | – | 0.055 | – | – | – | – |
| 0.43 | OCCNC[C@H]1CC[C@H](c2nnn3cnc4[nH]ccc4c23)CC1 [compound 272, 2-({[trans-4-(7H-pyrrolo[3,2-e][1,2,3]triazolo[1,5-c]pyrimidin-1-yl)cyclohexyl]methyl}amino)ethanol] | 0.0035 | 0.053 | 0.094 | – | – | – | – | – | – |
| – | c1ccc(CCCN[C@H]2CC[C@H](c3nnn4cnc5[nH]ccc5c34)CC2)cc1 [136b] | – | – | – | – | – | 0.016 | 0.29 | > 1 | 0.45 |
| 0.26 | COc1ccc(C(O)(CN[C@H]2CC[C@H](c3nnn4cnc5[nH]ccc5c34)CC2)C(F)(F)F)cc1 (stereo partly drawn) [388b, 3-{[trans-4-(7H-pyrrolo[3,2-e][1,2,3]triazolo[1,5-c]pyrimidin-1-yl)cyclohexyl]amino}-1,1,1-trifluoro-2-(4-methoxyphenyl)propan-2-ol] | 0.0012 | 0.025 | 0.21 | – | – | – | – | – | – |
| 0.79 | N#CCN[C@H]1CC[C@H](c2nnn3cnc4[nH]ccc4c23)CC1 [393b, 2-{[trans-4-(7H-pyrrolo[3,2-e][1,2,3]triazolo[1,5-c]pyrimidin-1-yl)cyclohexyl]amino}acetonitrile] | 0.0062 | 0.03 | 0.38 | – | – | – | – | – | – |
| 0.38 | Clc1n[nH]c2ccc(CN3CCC(c4nnn5cnc6[nH]ccc6c45)CC3)cc12 [compound 217, 1-{1-[(3-chloro-1H-indazol-5-yl)methyl]piperidin-4-yl}-7H-pyrrolo[3,2-e][1,2,3]triazolo[1,5-c]pyrimidine] | 0.08 | 0.18 | > 1 | – | – | – | – | – | – |
| – | C[C@@H](O)CNC[C@H]1CC[C@H](c2nnn3cnc4[nH]ccc4c23)CC1 [compound 185, (R)-1-({[trans-4-(7H-pyrrolo[3,2-e][1,2,3]triazolo[1,5-c]pyrimidin-1-yl)cyclohexyl]methyl}amino)propan-2-ol] | – | – | – | – | – | 0.0081 | 0.051 | 0.32 | 0.13 |
| – | c1cc2c(ncn3nnc([C@H]4CC[C@H](NN5CCOCC5)CC4)c23)[nH]1 [139b] | – | – | – | – | – | 0.021 | 0.076 | > 1 | 0.5 |
| 0.96 | N#C[C@@H]1CCN(C[C@H]2CC[C@H](c3nnn4cnc5[nH]ccc5c34)CC2)C1 [compound 301, (R)-1-{[trans-4-(7H-pyrrolo[3,2-e][1,2,3]triazolo[1,5-c]pyrimidin-1-yl)cyclohexyl]methyl}pyrrolidine-3-carbonitrile] | 0.024 | 0.072 | > 1 | – | – | – | – | – | – |
| 0.79 | O/N=C/[C@H]1CC[C@H](c2nnn3cnc4[nH]ccc4c23)CC1 [compound 429, 4-(7H-Pyrrolo[3,2-e][1,2,3]triazolo[1,5-c]pyrimidin-1-yl)cyclohexanecarbaldehyde oxime] | 0.017 | 0.035 | 0.52 | – | – | – | – | – | – |
| > 1 | CCNC[C@H]1CC[C@H](c2nnn3cnc4[nH]ccc4c23)CC1 [compound 330, N-{[trans-4-(7H-pyrrolo[3,2-e][1,2,3]triazolo[1,5-c]pyrimidin-1-yl)cyclohexyl]methyl}ethanamine] | 0.0074 | 0.047 | 0.14 | – | – | – | – | – | – |
| 0.054 | IC[C@H]1CC[C@H](c2nnn3cnc4[nH]ccc4c23)CC1 [compound 367] | 0.00099 | 0.0043 | 0.0073 | – | – | – | – | – | – |
| – | Cc1cc(NC(=O)N2CCCC(c3nnn4cnc5[nH]ccc5c34)C2)sn1 (racemic) [compound 21] | – | – | – | – | – | 0.015 | 0.11 | 0.9 | 0.71 |

| Compound | IC50 (JAK3; ATP 100 μM) [µM] | IC50 (JAK1) [µM] | IC50 (JAK2; ATP 100 μM) [µM] | IC50 (Tyk2) [µM] | IC50 (JAK2) [µM] | IC50 (JAK3) [µM] | IC50 (JAK1; Table^a 154) [µM] | IC50 (JAK2; ATP 100 μM, Table^a 154) [µM] | IC50 (JAK3; ATP 100 μM, Table^a 154) [µM] | IC50 (Tyk2; Table^a 154) [µM] |
| --- | --- | --- | --- | --- | --- | --- | --- | --- | --- | --- |
| FC(F)(F)C1CCN(C[C@H]2CC[C@H](c3nnn4cnc5[nH]ccc5c34)CC2)CC1 [compound 258, 1-(trans-4-{[4-(trifluoromethyl)piperidin-1-yl]methyl}cyclohexyl)-7H-pyrrolo[3,2-e][1,2,3]triazolo[1,5-c]pyrimidine] | > 1 | 0.012 | 0.081 | 0.74 | – | – | – | – | – | – |
| CC(C)(C)NC[C@H]1CC[C@H](c2nnn3cnc4[nH]ccc4c23)CC1 [compound 332, N-{[trans-4-(7H-pyrrolo[3,2-e][1,2,3]triazolo[1,5-c]pyrimidin-1-yl)cyclohexyl]methyl}-2-methylpropan-2-amine] | > 1 | 0.012 | 0.045 | 0.49 | – | – | – | – | – | – |
| CC(C)(C)OC(=O)NCC1CCN(C[C@H]2CC[C@H](c3nnn4cnc5[nH]ccc5c34)CC2)CC1 [compound 336, tert-butyl [(1-{[trans-4-(7H-pyrrolo[3,2-e][1,2,3]triazolo[1,5-c]pyrimidin-1-yl)cyclohexyl]methyl}piperidin-4-yl)methyl]carbamate] | > 1 | 0.025 | 0.37 | > 1 | – | – | – | – | – | – |
| O=S(=O)(O)C[C@H]1CC[C@H](c2nnn3cnc4[nH]ccc4c23)CC1 [compound 416, [trans-4-(7H-Pyrrolo[3,2-e][1,2,3]triazolo[1,5-c]pyrimidin-1-yl)cyclohexyl]methanesulfonic acid] | > 1 | 0.029 | 0.047 | 0.68 | – | – | – | – | – | – |
| O=C(CN[C@H]1CC[C@H](c2nnn3cnc4[nH]ccc4c23)CC1)NCC(F)(F)F [384b, 2-{[trans-4-(7H-pyrrolo[3,2-e][1,2,3]triazolo[1,5-c]pyrimidin-1-yl)cyclohexyl]amino}-N-(2,2,2-trifluoroethyl)acetamide] | > 1 | 0.022 | 0.08 | > 1 | – | – | – | – | – | – |
| N#CCN(CC1CC1)C[C@H]1CC[C@H](c2nnn3cnc4[nH]ccc4c23)CC1 [compound 414, 2-({[trans-4-(7H-pyrrolo[3,2-e][1,2,3]triazolo[1,5-c]pyrimidin-1-yl)cyclohexyl]methyl}(cyclopropylmethyl)amino)acetonitrile] | > 1 | 0.0095 | 0.13 | 0.11 | – | – | – | – | – | – |
| CN(CCO)C[C@H]1CC[C@H](c2nnn3cnc4[nH]ccc4c23)CC1 [compound 297, 2-({[trans-4-(7H-pyrrolo[3,2-e][1,2,3]triazolo[1,5-c]pyrimidin-1-yl)cyclohexyl]methyl}(methyl)amino)ethanol] | > 1 | 0.0095 | 0.1 | 0.32 | – | – | – | – | – | – |
| c1cc2c(ncn3nnc([C@H]4CC[C@H](CNC5CCCC5)CC4)c23)[nH]1 [compound 284, N-{[trans-4-(7H-pyrrolo[3,2-e][1,2,3]triazolo[1,5-c]pyrimidin-1-yl)cyclohexyl]methyl}cyclopentanamine] | > 1 | 0.017 | 0.15 | 0.32 | – | – | – | – | – | – |
| N#C[C@H]1CC[C@H](c2nnn3cnc4[nH]ccc4c23)CC1 [compound 430, trans-4-(7H-Pyrrolo[3,2-e][1,2,3]triazolo[1,5-c]pyrimidin-1-yl)cyclohexanecarbonitrile] | > 1 | 0.0086 | 0.049 | 0.41 | – | – | – | – | – | – |
| COCCN(CCOC)C[C@H]1CC[C@H](c2nnn3cnc4[nH]ccc4c23)CC1 [compound 326, N-{[trans-4-(7H-pyrrolo[3,2-e][1,2,3]triazolo[1,5-c]pyrimidin-1-yl)cyclohexyl]methyl}-2-methoxy-N-(2-methoxyethyl)ethanamine] | > 1 | 0.048 | 0.31 | > 1 | – | – | – | – | – | – |
